Assay results from US20260347380A1, “MODULATORS OF CD1 PROTEIN BINDING TO T CELL RECEPTORS” (The Brigham and Women's Hospital, Inc., priority 2022, published 2026).
Entries after “also recorded” stand apart in the source; their conditions may differ. Where two headings read alike, the source gives them in different places.

Tests used:
[1] = biological target: CD1a (Homo sapiens, UniProt P06126); assay: structure of CD1a-lipid complexes (FIG. 3, FIG. 4; co-crystallization); conditions: for binding mode to CD1a and effect on approach of T cell receptors: sphingomyelins, FIG. 3
Source text: Sulfatide sits similarly within CD1a as compared to other lipids, but the sulfatide headgroup alters the protein surface of CD1a and protrudes to the outer surface of CD1a where it can block T cell receptors.
Sulfatides (compounds S1-S10) have the same kinds of CD1a binding lipid tails as the synthetic sphingomyelins, but carry a differing headgroup comprised of sulfate and carbohydrate rather than phosphocholine. […] However, the head group of sulfatide has two proposed mechanisms for blocking TCR contact. […] However, the sulfatide moiety also disrupts a triad of residues on the outer surface of CD1a, which changes the intrinsic conformation of CD1a at the site at which the TCR can bind. These structural data predict that sulfatides could be particularly broad and efficacious blockers of T cell response.

[2] = test system: CD1a-T cell receptor; conditions: CD1a tetramer binding in vitro, J. Exp. Med. 2021, cited from earlier work
[3] = biological target: CD1a protein binding to RCS36 T cells (Homo sapiens, UniProt P06126); assay: CD1a tetramer staining of human CD1a autoreactive T cells (block of CD1a protein binding to T cells), flow cytometry, FIG. 5; conditions: in vitro, human CD1a tetramers
Method: Exemplified sphingomyelins block CD1a protein binding to RCS36 T cells. Fluorescent human CD1a tetramers were treated with media (mock) or a sphingomyelin variant synthesized with the indicated fatty chain and tested for staining of human CD1a autoreactive T cells using flow cytometry. In all cases the fatty acyl group is conjugated to a C18:1 sphingosine unit. Thus, the C28:1 fatty acyl group and the C18:1 sphingosine group constitute C46:2 sphingomyelin (compound 10).
Generally, naturally occurring cellular sphingomyelins within mammalian cells occur as mixtures, and they are most commonly C34-C36 but can range up to C42 in length.
The degree of inhibition for CD1a protein binding to T cells expressing receptors that normally bind to CD1a was tested for the exemplified compounds 1-10 (see FIG. 5). Increased chain length contributed to blockade in all cases, and the non-natural positioning of the second unsaturation in the fatty acyl unit affected blockade. More blockade was seen when the unsaturation was generated in positions more distal to the head group located at positions 15-17 (Δ15, Δ17). […] Accordingly, additional SM blockers include those with increased length of alkyl chains beyond C46, where the unsaturation is moved to more […] positions in the fatty acyl chain and the number of unsaturations in the fatty acid chain is increased. […]

[4] = test system: human CD1a transgenic mouse ear skin; assay: imiquimod (Aldara)-induced psoriasiform skin inflammation in CD1a transgenic mice: ear swelling and skin images; assay type: in vivo; conditions: for inflammatory lesions / visible skin inflammation: images day 7, topical 20 μg in ethanol
Method: (§1) Sphingomyelin species C34:1, C42:2 or C46:2 (20 μg/20 μl ethanol), or vehicle alone (20 μl ethanol) were applied topically to WT or CD1a transgenic mouse ear skin at 48 hour intervals before and during application of Aldara on days 0-5 (20 mg 5% imiquimod cream).
Daily measurement of ear swelling induced by imiquimod treatment of wild-type (WT) and CD1a transgenic mice (CD1a) treated topically with 20 μg sphingomyelin (SM34:1, SM42:2 or SM46:2) dissolved in ethanol, or ethanol alone control, as in FIG. 6. (N=2-3, 2-way-ANOVA with Dunnett's test, *, P<0.05; ****, P<0.0001 indicates significance on comparison to “CD1a:EtOH” at day 7, mean±SD).
Representative images of imiquimod-treated wild-type (WT) and CD1a transgenic mouse ear skin (CD1a) treated topically with 20 μg sphingomyelin (SM34:1, SM42:2 or SM46:2) dissolved in ethanol, or ethanol alone control, as in FIG. 6, images taken on day 7. Steroid is mometasone cream.
CD1a is normally expressed on Langerhans cells in the epidermal layer of human skin. […] The lipids of this disclosure block CD1a binding to several T cell clones in vitro and also more broadly block the response of larger populations of polyclonal T cells that recognize CD1a in vivo, leading to decreased inflammation in the skin.
Synthetic long (C46:2 SMΔ17, compound 10), intermediate (C42:2Δ15 SM) and short chain (C34:1 SM) sphingomyelins were compared for inflammatory response. Unlike natural preparations that contain mixtures of short and long chain lipids, these experiments used pure synthetic lipids to titrate CD1a binding and inhibition of immune response. The functional requirements for the delivery vehicle are that it must: 1) dissolve amphipathic lipids, 2) be safe, immunologically unreactive, and non-toxic to skin and 3) create a lipid film that can subsequently penetrate to the epidermal layers, where CD1a is normally located in human skin and in the skin of CD1a transgenic mice. In this experiment, ethanol was chosen which is a chemically simple, safe and effective vehicle; however, other vehicles can also be used.
A widely used model of psoriasiform and dermatitic inflammation induced by Aldara cream, whose active ingredient is a toll-like receptor 7 agonist (imiquimod), was used in this example. Experiments were carried out in which lipid antagonists were applied to the skin of human CD1a transgenic mice in an ethanol carrier, which dried rapidly, leaving a lipid film on the skin. A significant reduction in ear swelling was observed, as a global measure of inflammation and psoriasiform and dermatitic disease when long chain sphingomyelins were applied before (data not shown) or simultaneously with Aldara treatment (FIGS. 7-11).

[5] = test system: Skin T cell and draining lymph node T cell; assay: flow cytometry of ear skin and draining lymph node of imiquimod-treated mice (FIG. 9A); assay type: in vivo, mouse
Method: as §1
Flow cytometry analysis of ear skin of imiquimod-treated wild-type (WT) and CD1a transgenic mice (CD1a) treated topically with 20 μg sphingomyelin (SM34:1, SM42:2 or SM46:2) dissolved in ethanol, or ethanol alone control, as in FIG. 6. Skin T cell and draining lymph node T cell, frequency was determined. And lymph node CD4 and CD8 T cells assessed for cell surface CD69 expression, which is an indication of T cell activation. Skin and draining LN eosinophil and neutrophil frequency was determined. (N=2-3, 1-way-ANOVA with Dunnett's test, *, P<0.05; **, P<0.01; ***, P<0.001; ****, P<0.0001, mean±SD).

[6] = test system: skin cytokines; assay: skin cytokine levels of imiquimod-treated mice, cytometric bead array (FIG. 9B); assay type: in vivo, mouse; conditions: day 7
Method: as §1
(§2) Skin cytokine levels were assessed on day 7 of imiquimod-treated wild-type (WT) and CD1a transgenic mice (CD1a) treated topically with 20 μg sphingomyelin (SM34:1, SM42:2 or SM46:2) dissolved in ethanol, or ethanol alone control, as in FIG. 6, as measured by cytometric bead array. (N=2-3, 1-way-ANOVA with Dunnett's test, *, P<0.05; **, P<0.01; ***, P<0.001; ****, P<0.0001, mean±SD).

[7] = test system: plasma cytokines; assay: plasma cytokine levels of imiquimod-treated mice, cytometric bead array (FIG. 10); assay type: in vivo, mouse
Method: as §1
as §2, with “Plasma” for “Skin”, “of the blood” for “were assessed on day 7”, “P<0.01,” for “P<0.01; ***, P<0.001; ****, P<0.0001,”

[8] = test system: ears of hCD1a and WT mice; assay: MC903-induced type 2 skin inflammation and itch in hCD1a mice (FIG. 11); assay type: in vivo, mouse
Method: FIG. 11 show the impact of sphingomyelin application on MC903 type 2 inflammation and clinical itch. The ears of hCD1a and WT mice were topically treated with 1 nmol MC903/EtOH on days 0, 2 and 5. 20 μg/20 μl of SM 46:2, SM 42:2, SM 34:1 and vehicle were applied on the ear tissue on days-2, 0, 2 and 4. (A) Ear thickness, and (B) itching frequency were evaluated at endpoint of day 6. Each data plot represents an individual ear. Plots show mean±SEM. Statistics were calculated using one-way ANOVA with Tukey post-test. […], **** P<0.001, NS=nonsignificant.
In order to investigate whether SM had efficacy in a different inflammatory skin model, we utilized the MC903-induced model of type 2 cytokine inflammation which has features of dermatitis in humans and prominently causes itch, a major treatable skin symptom. The MC903-induced type 2 inflammation is amplified in the presence of hCD1a (Hardman et al Nat Comms 2022). […] These mice normally express CD1d and then were engineered to express CD1a. […] As well as having potential therapeutic applications in diseases involving type 2 inflammation in humans, the data support utility in treating broader diseases where pruritus and itch are symptoms. CD1a has not been previously linked with pruritus and so this represents a new area of biology and opens new areas for therapeutic application.

[9] = MC903, hCD1a mice, day 6, 20 μg topical

CD1a, sequence (P06126 17-327): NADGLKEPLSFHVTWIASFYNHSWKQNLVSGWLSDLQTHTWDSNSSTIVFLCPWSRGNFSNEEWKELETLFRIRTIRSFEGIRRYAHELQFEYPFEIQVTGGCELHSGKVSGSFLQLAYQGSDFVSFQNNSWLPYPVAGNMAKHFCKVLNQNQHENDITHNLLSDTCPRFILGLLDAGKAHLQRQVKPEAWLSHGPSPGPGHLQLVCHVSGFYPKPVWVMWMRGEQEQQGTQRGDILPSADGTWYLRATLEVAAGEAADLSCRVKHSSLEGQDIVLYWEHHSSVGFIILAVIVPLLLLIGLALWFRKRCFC
CD1a, sequence (P61769 21-119 partner): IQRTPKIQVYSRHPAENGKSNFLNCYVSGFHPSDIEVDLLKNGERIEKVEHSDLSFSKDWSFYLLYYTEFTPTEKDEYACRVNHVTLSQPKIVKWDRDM
CD1a protein binding to RCS36 T cells, sequence (P06126 17-327): as the sequence (P06126 17-327) above
CD1a protein binding to RCS36 T cells, sequence (P61769 21-119 partner): as the sequence (P61769 21-119 partner) above

CCCCCCCC/C=C\CCCCCCCC(=O)N[C@@H](COP(=O)([O-])OCC[N+](C)(C)C)[C@H](O)/C=C/CCCCCCCCCCCCC [36:2 SM]
binding mode to CD1a and effect on approach of T cell receptors [1]: binds by tucking its phosphocholine group largely inside CD1a so T cell receptors can approach CD1a and are not blocked
CD1a-T cell receptor binding [2]: did not block binding

CCCCCCCCCC/C=C\CCCCCCCCCCCCCCCC(=O)N[C@@H](COP(=O)([O-])OCC[N+](C)(C)C)[C@H](O)/C=C/CCCCCCCCCCCCC [Compound 10, 46:2 SM d18:1/28:1 (17Z)]
inhibition of CD1a protein binding to T cells [3]: strongest blockade; also recorded: strongly blocked CD1a binding to human T cell receptors in vitro
ear swelling / ear thickening ([4]; imiquimod, CD1a transgenic mice, topical 20 μg in ethanol): reduced skin swelling; also recorded: most significantly inhibited
inflammatory lesions / visible skin inflammation ([4]; imiquimod): most significantly inhibited
inflammatory lesions / visible skin inflammation ([4]; imiquimod, listed as C46:2): significantly reduced skin inflammation
inflammatory lesions / visible skin inflammation ([4]; imiquimod, listed as C46:2 SM): Reduced inflammatory lesions
protection from disease ([4]; in vivo mouse model, ethanol application): protection from disease
cellular inflammation ([5]; CD1a transgenic mice, topical in ethanol): reduced skin swelling and cellular inflammation in vivo
CD69 (surface marker of T cell activation) ([5]; lymph node CD4 and CD8 T cells): significant decreases
skin IFN-γ [6]: significant decreases
skin IL1α [6]: significant decreases
skin IL17α [6]: significant decreases
skin IL-1β [6]: significant decreases
skin IL-6 [6]: significant decreases
skin IL-17f [6]: significant decreases
skin IL-22 [6]: significant decreases
skin TNFα [6]: significant decreases
plasma IFNβ [7]: significantly reduced
plasma IL17α [7]: significantly reduced
plasma IL-4 [7]: significantly reduced
ear thickness vs wild-type mice treated with MC903 ([8]; MC903, day 6, 20 μg topical): significantly reduced
pruritus vs wild-type mice treated with MC903 ([8]; MC903, day 6, 20 μg topical): significantly reduced
ear thickness vs vehicle control [8, 9]: significantly reduced
itching/pruritus scores vs vehicle control [8, 9]: significantly reduced

CCCCCCCCCC/C=C\CCCCCCCCCCCCCC(=O)N[C@@H](COP(=O)([O-])OCC[N+](C)(C)C)[C@H](O)/C=C/CCCCCCCCCCCCC [Compound 8, 44:2 SM d18:1/26:1 (15Z)]
inhibition of CD1a protein binding to T cells [3]: somewhat improved blocking of C44Δ15 SM as compared to C44Δ17 SM

sulfatide
complex with CD1a ([1]; sulfatide, co-crystallized, FIG. 4): CD1a was co-crystallized with sulfatide; also recorded: forms complex with CD1a

CCCCCCCC/C=C\CCCCCCCCCCCCCC(=O)N[C@@H](COP(=O)([O-])OCC[N+](C)(C)C)[C@H](O)/C=C/CCCCCCCCCCCCC [42:2 SM]
binding mode to CD1a and effect on approach of T cell receptors [1]: binds CD1a with its phosphocholine headgroup protruding, which blocks approach of T cell receptors
CD1a-T cell receptor binding [2]: blocked CD1a-T cell receptor binding
CD1a-T cell receptor binding ([2]; listed as C42:2 compound): blocked better than the singly unsaturated C42:1 compound
